Data: article PMC8548585, “Triazolopyrimidine herbicides are potent inhibitors of Aspergillus fumigatus acetohydroxyacid synthase and potential antifungal drug leads” (Scientific Reports, 2021)

How the values were obtained:
A. flavus = assay: Antifungal susceptibility assay (broth microdilution MIC); type: cell-based; conditions: Aspergillus flavus, 35 °C, 48 h, no observable growth
[1] = molecular target: CaAHAS (C. albicans AHAS); parameters: method as in earlier work; conditions: shown for comparison; ref 13 (Garcia et al.); cited from earlier work
A. fumigatus = assay: Antifungal susceptibility assay (broth microdilution MIC); type: cell-based; conditions: Aspergillus fumigatus; A. fumigatus strain ATCC MYAA 3626, 35 °C, 48 h, no observable growth
A. nidulans = assay: as above; type: cell-based; conditions: Aspergillus nidulans, 35 °C, 48 h, no observable growth
A. niger = assay: as above; type: cell-based; conditions: Aspergillus niger, 35 °C, 48 h, no observable growth

Compound | MIC (A. flavus) [µg/mL] | Ki [1] [nM] | MIC (A. fumigatus) [µg/mL] | MIC (A. nidulans) [µg/mL] | MIC (A. niger) [µg/mL]
COC(=O)c1csc(C)c1S(=O)(=O)NC(=O)n1nc(OC)n(C)c1=O [TCM] | > 100 | 28000 | > 100 | > 100 | > 100
COc1cc(OC)n2nc(NS(=O)(=O)c3c(C(F)(F)F)ccnc3OC)nc2n1 [PYS] | > 100 | 212 ± 18 | > 100 | > 100 | > 100
CCOc1nc(F)cc2nc(S(=O)(=O)Nc3c(Cl)cccc3C(=O)OC)nn12 [CSM] | > 100 | 4.6 ± 1.2 | > 100 | > 100 | > 100
